Type in all cases: cell-based
Test [1] has as its system Pseudomonas aeruginosa PAM 1135. Kind of test: MIC broth microdilution, P. aeruginosa PAM 1135 (high level UPA resistance). Conditions: P. aeruginosa PAM 1135 UPA1^r.
The test system of test [2] is Pseudomonas aeruginosa PAM 1154. As to the kind of experiment: MIC broth microdilution, P. aeruginosa PAM 1154 (OprM::Hg). Conditions: P. aeruginosa PAM 1154 OprM::Hg. Background: Broth dilution looks for growth in wells or tubes with falling amounts of substance.
Test [3] relates to Staphylococcus aureus 8325-4. As to the kind of experiment: MIC broth microdilution, S. aureus 8325-4 (wild type). As to conditions: S. aureus 8325-4.
For test [4], the system named is Escherichia Coli MC 4100 AcrAB UPA3r. As to the kind of experiment: MIC broth microdilution, E. coli MC 4100 AcrAB UPA3r (ΔAcrAB, UPA resistant). As to conditions: E. coli AcrAB UPA3^r.
The subject of test [5] is Pasteurella multocida pm002. As to the kind of experiment: MIC broth microdilution, P. multocida pm002 (wild type).
Test [6] has as its system Pseudomonas aeruginosa PAM 1020. Kind of test: MIC broth microdilution, P. aeruginosa PAM 1020 (wild type). Conditions: P. aeruginosa PAM 1020.
The test system of test [7] is Escherichia Coli MC 4100 AcrAB. As to the kind of experiment: MIC broth microdilution, E. coli MC 4100 AcrAB (ΔAcrAB). Conditions: E. coli AcrAB.
The test system of a further test is Escherichia Coli MC 4100. Kind of test: MIC broth microdilution, E. coli MC 4100 (wild type). As to conditions: E. coli MC 4100.
Test [8] relates to Pseudomonas aeruginosa PAM 1323. As to the kind of experiment: MIC broth microdilution, P. aeruginosa PAM 1323 (medium level UPA resistance). The procedure:
Compounds were tested against several panels of bacteria. In a first panel, Table 3, several strains of Pseudomonas aeruginosa, Escherichia coli and Staphylococcus aureus were employed as the target bacteria.
For the bacteria in Table 3, the assay was performed in Mueller-Hinton Broth (MHB) with a final bacterial inoculum of 5×10^5 CFU/ml and a final volume of 100 μl. Control drugs, including imipenem and pacidimycin 4, and the test compounds were prepared at a concentration which was twice the desired final concentration (256 μg/ml). Dilution of the controls and the test compounds was accomplished directly on the test plates by serial 2-fold dilution using a multi-channel pipette. Both a positive and a negative growth control was included in each plate.
The bacterial inocula were prepared as follows. Bacterial strains were grown overnight at 35° C. in MHB. […] The culture was then diluted 1:10 and allowed to grow for an additional one hour at 35° C. in a shaking incubator. The inocula were then prepared by diluting the early log phase (one hour) cultures 1:2000 with fresh MHB. A volume of 50 μl of the inocula was added to each well, resulting in an inoculum of approximately 5×10^5 CFU/ml. The exact inocula were determined by putting 10 μl of 10-fold serial dilution of the bacterial suspensions onto TSA. After overnight incubation at 35° C., colony-forming units were counted manually.
The microtiter plates were incubated for 20 hours at 35° C. and were then read using a microtiterplate reader (Molecular Devices) at 650 nm as well as being visually observed using a microtiterplate reading mirror.

Test [9] has as its system Staphylococcus aureus ATCC 29213. As to the kind of experiment: MIC broth microdilution, S. aureus ATCC 29213 (wild type). Conditions: S. aureus ATCC 29213.

Structures are written as SMILES. In brackets after ≈: the same amount, converted by molar mass. Where only a bound is given, the exact number is not on record here.

Take `CC(N)C(=O)N(C)C(C)C(NC(=O)C(Cc1ccc(F)cc1)NC(=O)NC(C(=O)O)c1ccccc1)C(=O)NCC1CC(O)C(n2ccc(=O)[nH]c2=O)O1` (mixture of isomers) [Compound 142, 1-[5′-[(2S,3S)-N^3-L-Alanyl-N^2-[N-[[α(S,R)-1-carboxy-phenmethyl]carbamoyl]-L-4-fluorophenylalanyl]-N^3-methyl-2,3-diaminobutyramidol-3′,5′-dideoxy-α-L-arabinofuranosyl]uracil]: the “MIC (μg/ml) Broth microdilution” value is above 512 µg/mL in [1]; 64 µg/mL in test [2]; above 512 µg/mL in test [3]; 32 µg/mL in test [4]; above 512 µg/mL in test [5]; 512 µg/mL in [6]. Also, the “MIC (μg/ml) Broth microdilution” value in test [7] was 4 µg/mL; in the test with Escherichia Coli MC 4100 it was 512 µg/mL; in test [8] it was above 512 µg/mL; in [9], above 512 µg/mL.

Turning to `CSCCC(NC(=O)NC(Cc1c[nH]c2ccccc12)C(=O)O)C(=O)NC(C(=O)NCC1CC(O)C(n2ccc(=O)[nH]c2=O)O1)C(C)N(C)C(=O)C(C)N` [Compound 167, 1-[5′-[(2S,3S)-N^3-L-Alanyl-N^2-[N-[[(1S)-1-carboxy-2-indol-3-ylethyl]carbamoyl]-L-methionyl]-N^3-methyl-2,3-diaminobutyramido]-3′,5′-dideoxy-α-L-arabinofuranosyl]uracil], the “MIC (μg/ml) Broth microdilution” value in test [1] is above 512 µg/mL; in [2] it was 256 µg/mL (≈ 331 µM); in test [3], above 512 µg/mL; in test [4], 128 µg/mL (≈ 165 µM); in test [5], 128 µg/mL (≈ 165 µM); in test [6] it was 512 µg/mL (≈ 662 µM). The “MIC (μg/ml) Broth microdilution” value in test [7] is 4 µg/mL (≈ 5.17 µM); against Escherichia Coli MC 4100 it was 512 µg/mL (≈ 662 µM); in [8], 512 µg/mL (≈ 662 µM); in test [9], above 512 µg/mL.

Consider `CC(N)C(=O)N(C)C(C)C(NC(=O)C(Cc1cccs1)NC(=O)NC(Cc1ccc(O)cc1)C(=O)O)C(=O)NCC1CC(O)C(n2ccc(=O)[nH]c2=O)O1` [Compound 119, 1-[5-[(2S,3S)-N^3-L-Alanyl-N^2-[N-[[(1S)-1-carboxy-4-hydroxyphenethyl]carbamoyl]-L-3-(2-thienyl)alanyl]-N^3-methyl-2,3-diaminobutyramido]-3′,5′-dideoxy-α-L-arabinofuranosyl]uracil], for which the “MIC (μg/ml) Broth microdilution” value was above 512 µg/mL in test [1]; 32 µg/mL (≈ 41.4 µM) in test [2]; above 512 µg/mL in test [3]; 64 µg/mL (≈ 82.8 µM) in test [4]; above 512 µg/mL in [5]; 64 µg/mL (≈ 82.8 µM) in test [6]. Moreover, the “MIC (μg/ml) Broth microdilution” value in test [7] was 4 µg/mL (≈ 5.18 µM); against Escherichia Coli MC 4100, above 512 µg/mL; in test [8], above 512 µg/mL; in test [9] it was above 512 µg/mL.

In the case of `CC(C(NC(=O)C(Cc1ccccc1)NC(=O)NC(Cc1ccc(O)cc1)C(=O)O)C(=O)NCC1CC(O)C(n2ccc(=O)[nH]c2=O)O1)N(C)C(=O)CN` [Compound 102, 1-[5′-[(2S,3S)-N^2-[N-[[(1S)-1-Carboxy-4-hydroxyphenethyl]carbamoyl]-L-phenylalanyl]-N^3-glycyl-N^3-methyl-2,3-diaminobutyramido]-3′,5′-dideoxy-α-L-arabinofuranosyl]uracil], the “MIC (μg/ml) Broth microdilution” value in test [1] was above 512 µg/mL; in test [2], 8 µg/mL (≈ 10.6 µM); in test [3], 512 µg/mL (≈ 680 µM); in test [4], 16 µg/mL (≈ 21.3 µM); in test [5], 256 µg/mL (≈ 340 µM); in [6], 32 µg/mL (≈ 42.5 µM). The “MIC (μg/ml) Broth microdilution” value in test [7] is below 1 µg/mL; in the test on Escherichia Coli MC 4100 it was 512 µg/mL (≈ 680 µM); in [8], 512 µg/mL (≈ 680 µM); in test [9] it was above 512 µg/mL.

As to `CC(N)C(=O)N(C)C(C)C(NC(=O)C(Cc1ccccc1)NC(=O)NC(Cc1cccs1)C(=O)O)C(=O)NCC1CC(O)C(n2ccc(=O)[nH]c2=O)O1` [Compound 125, 1-[5′-[(2S,3S)-N^3-L-Alanyl-N^2-[N-[[(1S)-1-carboxy-2-(2-thienyl)ethyl]carbamoyl]-L-phenylalanyl]-N^3-methyl-2,3-diaminobutyramidol-3′,5′-dideoxy-α-L-arabinofuranosyl]uracil], the “MIC (μg/ml) Broth microdilution” value in test [1] is above 512 µg/mL; in [2], 8 µg/mL (≈ 10.6 µM); in test [3], above 512 µg/mL; in [4], 64 µg/mL (≈ 84.6 µM); in test [5] it was above 512 µg/mL; in test [6], 64 µg/mL (≈ 84.6 µM). Also, the “MIC (μg/ml) Broth microdilution” value in test [7] is 8 µg/mL (≈ 10.6 µM); against Escherichia Coli MC 4100, above 512 µg/mL; in test [8], above 512 µg/mL; in test [9] it was above 512 µg/mL.

On to `CC(C(NC(=O)C(Cc1ccc(F)cc1)NC(=O)NC(Cc1c[nH]c2ccccc12)C(=O)O)C(=O)NCC1CC(O)C(n2ccc(=O)[nH]c2=O)O1)N(C)C(=O)C(N)Cc1ccccc1` [Compound 113, 1-[5′-[(2S,3S)-[N-[[(1S)-1-Carboxy-2-indol-3-ylethyl]carbamoyl]-L-4-fluorophenylalanyl]-N^3-L-phenylalanyl-N^3-methyl-2,3-diaminobutyramido]-3′,5′-dideoxy-α-L-arabinofuranosyl]uracil], for which the “MIC (μg/ml) Broth microdilution” value was above 512 µg/mL in test [1]; 64 µg/mL (≈ 72.4 µM) in [2]; above 512 µg/mL in test [3]; 64 µg/mL (≈ 72.4 µM) in [4]; 512 µg/mL (≈ 579 µM) in [5]; 64 µg/mL (≈ 72.4 µM) in test [6]. The “MIC (μg/ml) Broth microdilution” value is 8 µg/mL (≈ 9.05 µM) in [7], above 512 µg/mL in the test with Escherichia Coli MC 4100, above 512 µg/mL in [8] and above 512 µg/mL in test [9].

In the case of `CSCCC(NC(=O)NC(Cc1c[nH]c2ccccc12)C(=O)O)C(=O)NC(C(=O)NCC1CC(O)C(n2ccc(=O)[nH]c2=O)O1)C(C)N(C)C(=O)CN` [Compound 112, 1-[5′-[(2S,3S)-N^2-[N-[[(1S)-1-Carboxy-2-indol-3-ylethyl]carbamoyl]-L-methionyl]-N^3-glycyl-N^3-methyl-2,3-diaminobutyramido]-3′,5′-dideoxy-α-L-arabinofuranosyl]uracil], the “MIC (μg/ml) Broth microdilution” value was above 512 µg/mL in [1]; 4 µg/mL (≈ 5.26 µM) in test [2]; above 512 µg/mL in [3]; 16 µg/mL (≈ 21.1 µM) in [4]; 128 µg/mL (≈ 168 µM) in test [5]; 16 µg/mL (≈ 21.1 µM) in test [6]. Besides, the “MIC (μg/ml) Broth microdilution” value was 2 µg/mL (≈ 2.63 µM) in test [7], above 512 µg/mL against Escherichia Coli MC 4100, 256 µg/mL (≈ 337 µM) in test [8] and above 512 µg/mL in test [9].

For the molecule `C[C@H](N)C(=O)N(C)[C@@H](C)[C@H](NC(=O)[C@H](Cc1ccccc1F)NC(=O)N[C@@H](Cc1c[nH]c2ccccc12)C(=O)O)C(=O)NC[C@H]1C[C@@H](O)[C@H](n2ccc(=O)[nH]c2=O)O1` [Compound 139, 1-[5′-[(2S,3S)-N^3-L-Alanyl-N^2-[N-[[(1S)-1-carboxy-2-indol-3-ylethyl]carbamoyl]-L-2-fluorophenylalanyl]-N^3-methyl-2,3-diaminobutyramido]-3′,5′-dideoxy-α-L-arabinofuranosyl]uracil], the “MIC (μg/ml) Broth microdilution” value is above 512 µg/mL in [1]; 8 µg/mL (≈ 9.9 µM) in [2]; 256 µg/mL (≈ 317 µM) in test [3]; 64 µg/mL (≈ 79.2 µM) in test [4]; 256 µg/mL (≈ 317 µM) in test [5]; 64 µg/mL (≈ 79.2 µM) in [6]. Besides, the “MIC (μg/ml) Broth microdilution” value is 2 µg/mL (≈ 2.48 µM) in test [7], above 512 µg/mL in the test on Escherichia Coli MC 4100, 512 µg/mL (≈ 634 µM) in test [8] and 256 µg/mL (≈ 317 µM) in [9].
